Laboratory results: ChEMBL document CHEMBL3046753, “Isocoumarin Derivative as a Novel GABA Receptor Ligand from Neosartorya quadricincta” (J Pestic Sci, 2004)

Experiments:
[1] = Inhibition of GABA receptor-induced currents in Rattus norvegicus (rat) dorsal ganglion neuron
[2] = Displacement of [3H]EBOB from GABA receptor in Rattus norvegicus (rat) membrane after 70 min by liquid scintillation counting; type: cell membranes
[3] = biological target: T1, GABA receptor subunit (Musca domestica, UniProt Q75NA5); assay: Displacement of [3H]EBOB from GABA receptor in Musca domestica (house fly) head P2 membrane after 70 min by liquid scintillation counting
T1 sequence (Q75NA5 whole entry): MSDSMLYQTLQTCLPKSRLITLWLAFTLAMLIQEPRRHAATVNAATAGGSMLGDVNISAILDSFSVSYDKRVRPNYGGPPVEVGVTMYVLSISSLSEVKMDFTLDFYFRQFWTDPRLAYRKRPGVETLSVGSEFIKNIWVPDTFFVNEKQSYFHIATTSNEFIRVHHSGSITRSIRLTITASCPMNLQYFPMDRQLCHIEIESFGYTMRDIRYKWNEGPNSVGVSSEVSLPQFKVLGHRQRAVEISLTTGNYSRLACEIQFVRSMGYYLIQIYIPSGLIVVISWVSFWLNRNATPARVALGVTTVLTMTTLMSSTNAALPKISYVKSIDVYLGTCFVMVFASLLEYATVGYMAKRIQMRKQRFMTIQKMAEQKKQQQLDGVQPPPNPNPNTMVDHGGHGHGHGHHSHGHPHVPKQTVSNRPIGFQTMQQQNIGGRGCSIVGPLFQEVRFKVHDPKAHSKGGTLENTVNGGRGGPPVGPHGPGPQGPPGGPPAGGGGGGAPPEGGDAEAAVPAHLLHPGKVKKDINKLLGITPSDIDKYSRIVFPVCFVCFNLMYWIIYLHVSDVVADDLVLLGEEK

[4] = biological target: T2, GABA receptor subunit (Musca domestica) (UniProt Q75NA5); assay: Displacement of [3H]EBOB from GABA receptor in Musca domestica (house fly) head P2 membrane at 2.2 uM after 70 min by liquid scintillation counting
T2 sequence (whole entry): T1 sequence (Q75NA5 whole entry)

IC50 [1] [nM]	IC50 [2] [nM]	IC50 [3] [nM]	inhibition [4] [%]	SMILES
540	3410	88		CC(C)(C)CCOC(=O)c1ccc(C#CCCC(=O)O)cc1
	3410	88	65	COc1cc(O)c2c(c1C)C(C)C(O)(COC(=O)c1ccc(O)c(CC=C(C)C)c1)OC2=O (stereo unspecified) [DIHYDROISOCOUMARIN]
